According to paper PMC6155625 (Molecules : A Journal of Synthetic Chemistry and Natural …, 2017):
Marks after values point to notes of the source that are not given here.

How the values were obtained:
[1] = tested on: Salmonella typhimurium TA97; conditions: HF 0.075–2 µg/plate + 9-aminoacridine 50 µg/plate; without S9
Experimental: (§1) The Ames assay was conducted according to the method modified by Maron and Ames. In the Ames test, three bacterial strains of S. typhimurium (TA97, TA98, and TA100) were used. These strains are deficient in histidine and biotin, and, at the same time, they are deficient in excision repair. Prior to each experiment, the quality of each bacterial strain was checked similarly, as described by Berg et al.. The assay was carried out in sterile test tubes containing 100 µL (approximately 1.10^8 cells/mL) of overnight bacterial culture (overnight cultivated in 50 mL of LB medium) and 2.5 mL of the top-agar (with traces of histidine and biotin). In the case of metabolic activation, S9 mix was used to activate a promutagen 2-aminofluorene (50 µg/plate, Serva, Heidelberg, Germany). […] As positive controls (PC), the following diagnostic/direct mutagens were used: 9-aminoacridine (50 µg/plate, Serva, Heidelberg, Germany) for TA97; 4-nitroquinoline-1-oxide (20 µg/plate, Serva, Heidelberg, Germany) for TA98; and sodium azide (50 µg/plate, Serva, Heidelberg, Germany) for TA100. […] After 48 h of cultivation at 37 °C, his^+ revertants were counted. All experiments were conducted in triplicate. The data obtained were then analyzed using Student’s t-test.

[2] = tested on: S. typhimurium TA100; conditions: HF 0.075–2 µg/plate + sodium azide 50 µg/plate; without S9
Experimental: as §1

[3] = tested on: S. typhimurium TA98; conditions: all HF concentrations (0.075–2 µg/plate) + 4-NQO 20 µg/plate; without S9
Experimental: as §1

[4] = tested on: HepG2 cells; assay: In vitro mammalian chromosome aberration test on HepG2; type: cell-based, human
Experimental: HepG2 and VH10 cells were seeded into Petri dishes (Ø = 60 mm; HepG2 inoculum of 1 × 10^6 cells/dish and VH10 inoculum of 3.8 × 10^5 cells/dish) for 2 h. […] Three hours before the end of the cultivation, colchicine (0.75 µg/mL) was added. Before karyological processing, the cells were counted. Slides were prepared by the standard air-drying method and were stained with 2% aqueos Giemsa-Romanowski solution for 10 min.
(§2) Chromosome aberrations were evaluated by a microscopic examination. For each sample, 100 metaphases were analyzed. We focused on the following structural aberrations; breaks, chromatid, and iso-chromatid, and exchanges, including dicentrics, rings, tri-radials and quadri-radials. The results were evaluated statistically on the basis of the difference between two relative values. The percentage of aberrant metaphases and the total number of chromosome aberrations was compared to solvent control (SC), or clastogenic effect, and positive control (PC), or anticlastogenic effect. Since the genetic significance of gaps is not clearly understood, they were not included in the assessment of chromosomal damage and thus were not evaluated statistically.

[5] = tested on: HepG2 cells; conditions: read-out: IC50 (cell survival, MTT), 42 h treatment
Experimental: Thereafter, the medium was removed, and replaced by 200 µL of DMSO. The absorbance was measured at 540 and 690 nm using an xMarkTM Microplate Spectrophotometer (Bio-Rad Laboratories, Inc., Berkeley, CA, USA).

[6] = tested on: human lymphocytes; conditions: HF 0.02–1 µM pretreatment, then zeocin 4.5 µM
Experimental: In the alkaline comet assay human lymphocytes were used. They were isolated from peripheral blood obtained by the finger prick method. To 1 mL of ice cold 1× PBS, 40 μL of peripheral blood was added and allowed to stand on ice for 30 min. Lymphocytes were separated from whole blood samples by standard centrifugation with 100 μL of the Histopaque medium (Sigma-Aldrich). After the centrifugation, 200 μL of isolated cells were resuspended in 1 mL of 1× PBS buffer and re-centrifuged.
This assay was selected for detecting the potential antigenotoxic effect of HF towards zeocin on the human lymphocytes. […] Briefly, human lymphocytes were suspended in 1% low melting point agarose (LMP) in PBS and placed on slides pre-coated with 1% normal melting point agarose (NMP). Slides with embedded lymphocytes were incubated for 1 h in HF solution (0.02; 0.05; 0.2; 1 µM). […] Afterwards, the zeocin solution was rinsed off with PBS. […] For the negative control, cells were left untreated in PBS for 1 h. […] Finally, the slides were stained with 20 µg/mL of ethidium bromide (Sigma-Aldrich, Bratislava, Slovakia), and, in each sample, 100 random nucleoids were scored at magnification 400× using a fluorescence microscope Olympus BX 51. The DNA damage was evaluated using the Comet visual computer software. DNA damage was expressed as the percentage of DNA in the tail (% tail DNA) [55]. […]

[7] = tested on: VH10 cells; assay: In vitro mammalian chromosome aberration test on VH10; type: cell-based, human; conditions: for Number of Aberrant Metaphases / Number of Chromosome Aberrations, Chromatid b/f / Number of Chromosome Aberrations, Chromatid g / Number of Chromosome Aberrations, Exchange dic / Number of Chromosome Aberrations, Exchange qr / Number of Chromosome Aberrations, Exchange tr / Number of Chromosome Aberrations, Isochromatid b/f / Total Number of CA: 100 metaphases
Experimental: HepG2 and VH10 cells were seeded into Petri dishes (Ø = 60 mm; HepG2 inoculum of 1 × 10^6 cells/dish and VH10 inoculum of 3.8 × 10^5 cells/dish) for 2 h. Then, HF non-clastogenic concentrations (0.75 or 1.5 µM) were added and the cultures were incubated for 24 h. These concentrations of HF were chosen based on preliminary experiments (range-finding tests). Afterwards the medium was replaced with fresh medium alone or with fresh medium containing mutagens B(a)P (1.7 μM for HepG2 cells) or cisPt (0.5 μM for HepG2 cells and 0.75 μM for VH10 cells), and the HepG2 cells were cultivated further for 42 h and VH10 cells for 36 h, which approximately corresponds to 1.3 cell cycles of HepG2 and VH10 cells. Three hours before the end of the cultivation, colchicine (0.75 µg/mL) was added. Before karyological processing, the cells were counted. Slides were prepared by the standard air-drying method and were stained with 2% aqueos Giemsa-Romanowski solution for 10 min.
as §2

[8] = HF 0.75 µM pretreatment 24 h + cisPt 0.5 µM, 100 metaphases
[9] = HF 0.75 µM pretreatment + B(a)P 1.7 µM, 100 metaphases
[10] = HF 1.5 µM pretreatment 24 h + cisPt 0.5 µM, 100 metaphases
[11] = HF 1.5 µM pretreatment + B(a)P 1.7 µM, 100 metaphases
[12] = HF 0.75 µM pretreatment 24 h + cisPt 0.75 µM
[13] = HF 1.5 µM pretreatment 24 h + cisPt 0.75 µM
[14] = cisPt 0.5 µM (positive control), 100 metaphases
[15] = cisPt 0.75 µM (positive control)

For Hyperforin [HF], the “number of his+ revertants vs positive control” value [1] was “decrease”, the antimutagenic effect [2] was “not observed” and the “number of his+ revertants vs positive control” value [3] was “significant decrease”. For the same compound, the “Number of Aberrant Metaphases” value [4, 8] was 10 *^,###, the “Number of Chromosome Aberrations, Chromatid b/f” value [4, 8] was 5 and the “Number of Chromosome Aberrations, Chromatid g” value (from here on “Number … Chromatid g”) [4, 8] was 2. For the same compound, the “Number of Chromosome Aberrations, Exchange dic” value (“Number … Exchange dic” for short) [4, 8] was 2, the “Number of Chromosome Aberrations, Isochromatid b/f” value (from here on “Number … Isochromatid b/f”) [4, 8] was 4 and the “Total Number of CA” value [4, 8] was 11 *^,###. For the same compound, the “Number of Aberrant Metaphases” value [4, 9] was 8 ^###, the “Number of Chromosome Aberrations, Chromatid b/f” value [4, 9] was 7 and the “Number … Chromatid g” value [4, 9] was 1. For the same compound, the “Number … Isochromatid b/f” value [4, 9] was 1, the “Total Number of CA” value [4, 9] was 8 ^### and the “Number of Aberrant Metaphases” value [4, 10] was 14 **^,###. The “Number of Chromosome Aberrations, Chromatid b/f” value [4, 10] was 10, the “Number … Chromatid g” value [4, 10] was 2 and the “Number … Exchange dic” value [4, 10] was 1. The “Number … Isochromatid b/f” value [4, 10] was 3, the “Total Number of CA” value [4, 10] was 14 **^,### and the “Number of Aberrant Metaphases” value [4, 11] was 8 ^###. The “Number of Chromosome Aberrations, Chromatid b/f” value [4, 11] was 8, the “Number … Chromatid g” value [4, 11] was 1 and the “Number … Exchange dic” value [4, 11] was 1. The “Total Number of CA” value [4, 11] was 9 ^###, the “amount of aberrant metaphases and chromosome aberrations” value ([4]; HF 0.75 and 1.5 µM pretreatment 24 h, then cisPt 0.5 µM) was “significant decrease” and the IC50 [5] was 19.9 µM. For the same compound, the “percentage of damaged DNA vs positive control (zeocin)” value [6] was “significantly decreased the percentage of damaged DNA”, the “Number of Aberrant Metaphases” value [7, 12] was 12 **^,### and the “Number of Chromosome Aberrations, Chromatid b/f” value [7, 12] was 8. The “Number … Chromatid g” value [7, 12] was 1, the “Number … Exchange dic” value [7, 12] was 1 and the “Number of Chromosome Aberrations, Exchange qr” value (from here on “Number … Exchange qr”) [7, 12] was 1. The “Number of Chromosome Aberrations, Exchange tr” value (shortened to “Number … Exchange tr”) [7, 12] was 1, the “Number … Isochromatid b/f” value [7, 12] was 3 and the “Total Number of CA” value [7, 12] was 14 ***^,###. The “Number of Aberrant Metaphases” value [7, 13] was 11 **^,###, the “Number of Chromosome Aberrations, Chromatid b/f” value [7, 13] was 8 and the “Number … Chromatid g” value [7, 13] was 3. The “Number … Exchange dic” value [7, 13] was 1, the “Number … Exchange tr” value [7, 13] was 2 and the “Total Number of CA” value [7, 13] was 11 **^,###. The “amount of aberrant metaphases and chromosome aberrations” value ([7]; HF pretreatment 24 h, then cisPt 0.75 µM) was “significant decrease”.

For `N.N.[Cl][Pt][Cl]` [cisPt, cisplatinum(II)diamine dichloride, reference compound], the “Number of Aberrant Metaphases” value [4, 14] was 38 ***, the “Number of Chromosome Aberrations, Chromatid b/f” value [4, 14] was 36 and the “Number … Chromatid g” value [4, 14] was 2. For the same compound, the “Number … Exchange dic” value [4, 14] was 2, the “Number … Exchange qr” value [4, 14] was 1 and the “Number … Isochromatid b/f” value [4, 14] was 8. The “Total Number of CA” value [4, 14] was 47 ***, the “Number of Aberrant Metaphases” value [7, 15] was 33 *** and the “Number of Chromosome Aberrations, Chromatid b/f” value [7, 15] was 26. For the same compound, the “Number … Chromatid g” value [7, 15] was 2, the “Number … Exchange qr” value [7, 15] was 4 and the “Number … Exchange tr” value [7, 15] was 5. For the same compound, the “Number … Isochromatid b/f” value [7, 15] was 9 and the “Total Number of CA” value [7, 15] was 44 ***.
